# Laboratory results published in ChEMBL document CHEMBL1201862, “PubChem BioAssay data set” (2004).
# Calls of active or inactive are those of the source.
# Assays:
# [1] = viability inhibitors of stage V gametocytes – luminescence, dose response (AID 1117278); format: functional, cell-based;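 also: gametocytes exposed to compound for 24 hours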
# [2] = viability loss in human Jurkat cells – cell-based, luminescence, cytotoxicity control for P. falciparum gametocyte viability project, dose response (AID 1117277); format: functional;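 also: potency reflects loss of cellular ATP meaning fewer viable cells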
# Estrogen receptor beta = Estrogen receptor beta (Homo sapiens, UniProt Q92731);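 also: recombinant ER-beta bound to coactivator SRC1 peptide in presence of estradiol agonist; inhibitors block coactivator peptide binding and lower the FRET signal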
# Sequence of Estrogen receptor beta (Q92731 whole entry): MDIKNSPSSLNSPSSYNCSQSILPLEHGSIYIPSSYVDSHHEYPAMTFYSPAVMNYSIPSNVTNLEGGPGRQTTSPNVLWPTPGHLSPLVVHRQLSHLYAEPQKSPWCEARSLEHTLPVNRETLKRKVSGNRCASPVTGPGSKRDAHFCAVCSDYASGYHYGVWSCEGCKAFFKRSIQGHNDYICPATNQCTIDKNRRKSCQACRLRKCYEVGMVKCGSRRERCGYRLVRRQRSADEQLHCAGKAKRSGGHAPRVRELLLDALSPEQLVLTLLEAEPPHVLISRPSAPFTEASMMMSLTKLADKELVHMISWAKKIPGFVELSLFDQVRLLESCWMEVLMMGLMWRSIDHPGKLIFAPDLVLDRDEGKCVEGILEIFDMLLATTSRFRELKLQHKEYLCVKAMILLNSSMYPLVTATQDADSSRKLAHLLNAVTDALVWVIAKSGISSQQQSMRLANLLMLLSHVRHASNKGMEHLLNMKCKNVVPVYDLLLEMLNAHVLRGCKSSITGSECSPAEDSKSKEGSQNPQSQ
# [3] = A cytotoxicity screen of small molecule inhibitors of the PhoP region in Salmonella typhi identified in the primary screen. [Related pubchem assays: 1850, 1864, 1985 ]; format: functional
# [4] = IC50 of insulin release inhibition, rat insulinoma INS-1E line, 5 mM glucose, cell-based (AID 1117331); format: functional
# Cytochrome P450 2D6 = Cytochrome P450 2D6 (Homo sapiens, UniProt P10635);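 also: CYP2D6 member of a cytochrome P450 panel assay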
# Sequence of Cytochrome P450 2D6 (P10635 whole entry): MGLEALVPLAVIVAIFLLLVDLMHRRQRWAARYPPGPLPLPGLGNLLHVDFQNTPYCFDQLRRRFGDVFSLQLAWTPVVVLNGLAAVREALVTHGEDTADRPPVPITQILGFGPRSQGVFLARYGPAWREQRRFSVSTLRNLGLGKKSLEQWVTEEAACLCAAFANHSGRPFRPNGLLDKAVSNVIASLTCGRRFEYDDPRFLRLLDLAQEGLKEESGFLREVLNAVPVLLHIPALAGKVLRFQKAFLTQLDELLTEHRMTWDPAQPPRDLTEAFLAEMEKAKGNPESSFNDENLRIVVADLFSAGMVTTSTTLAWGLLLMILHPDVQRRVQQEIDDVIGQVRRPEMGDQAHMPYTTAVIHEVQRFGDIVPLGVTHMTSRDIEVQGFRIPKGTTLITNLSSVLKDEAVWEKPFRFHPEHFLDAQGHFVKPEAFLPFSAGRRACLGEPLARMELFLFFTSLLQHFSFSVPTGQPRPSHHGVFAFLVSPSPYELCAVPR
# Cytochrome P450 1A2 = molecular target: T1, Cytochrome P450 1A2 (Homo sapiens, UniProt P05177);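 also: PubChem cytochrome P450 panel assay, CYP1A2 panel member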
# T1 sequence (P05177 whole entry): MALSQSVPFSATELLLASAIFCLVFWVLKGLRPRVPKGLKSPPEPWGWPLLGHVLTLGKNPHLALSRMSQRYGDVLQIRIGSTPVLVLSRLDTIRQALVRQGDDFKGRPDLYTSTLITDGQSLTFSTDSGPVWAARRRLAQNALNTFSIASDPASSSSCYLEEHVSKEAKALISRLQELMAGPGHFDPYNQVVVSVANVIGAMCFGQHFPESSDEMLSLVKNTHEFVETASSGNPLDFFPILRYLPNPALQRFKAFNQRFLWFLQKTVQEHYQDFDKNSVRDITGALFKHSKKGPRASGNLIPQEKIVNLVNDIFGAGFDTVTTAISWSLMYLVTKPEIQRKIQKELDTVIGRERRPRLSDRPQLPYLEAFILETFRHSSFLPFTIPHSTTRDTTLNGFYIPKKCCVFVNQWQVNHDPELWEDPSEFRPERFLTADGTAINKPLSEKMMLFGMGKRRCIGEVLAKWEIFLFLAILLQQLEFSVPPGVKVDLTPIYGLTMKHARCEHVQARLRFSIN
# [5] = molecular target: T2, Bifunctional protein GlmU (Mycobacterium tuberculosis, UniProt P9WMN3); experiment: Inhibitors of Mycobacterial Glucosamine-1-phosphate acetyl transferase (GlmU). Secondary screen.; set-up: species or system Mycobacterium tuberculosis H37Rv
# T2 sequence (P9WMN3 whole entry): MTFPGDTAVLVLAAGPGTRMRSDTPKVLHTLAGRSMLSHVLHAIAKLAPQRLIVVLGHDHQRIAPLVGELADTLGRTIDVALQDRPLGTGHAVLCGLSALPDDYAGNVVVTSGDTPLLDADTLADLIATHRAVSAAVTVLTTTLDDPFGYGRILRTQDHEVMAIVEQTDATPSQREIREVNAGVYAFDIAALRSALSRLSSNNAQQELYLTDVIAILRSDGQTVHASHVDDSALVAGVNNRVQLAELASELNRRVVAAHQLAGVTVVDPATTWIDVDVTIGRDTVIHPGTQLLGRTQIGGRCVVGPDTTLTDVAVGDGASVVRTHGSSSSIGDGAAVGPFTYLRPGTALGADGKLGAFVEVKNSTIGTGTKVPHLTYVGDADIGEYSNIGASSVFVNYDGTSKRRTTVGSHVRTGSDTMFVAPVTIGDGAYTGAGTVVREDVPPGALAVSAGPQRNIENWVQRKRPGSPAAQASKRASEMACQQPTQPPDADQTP
# [6] = molecular target: T3, Microphthalmia-associated transcription factor (Homo sapiens, UniProt O75030); experiment: reducers of TRPM1 reporter luminescence, concentration series – cell-based, SK-MEL-5, cherry-picked, set 3, MITF inhibitor project, dose response (AID 493073); format: functional;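 also: SK-MEL-5 melanoma cells with luciferase driven by the MITF target TRPM1 promoter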
# T3 sequence (O75030 whole entry): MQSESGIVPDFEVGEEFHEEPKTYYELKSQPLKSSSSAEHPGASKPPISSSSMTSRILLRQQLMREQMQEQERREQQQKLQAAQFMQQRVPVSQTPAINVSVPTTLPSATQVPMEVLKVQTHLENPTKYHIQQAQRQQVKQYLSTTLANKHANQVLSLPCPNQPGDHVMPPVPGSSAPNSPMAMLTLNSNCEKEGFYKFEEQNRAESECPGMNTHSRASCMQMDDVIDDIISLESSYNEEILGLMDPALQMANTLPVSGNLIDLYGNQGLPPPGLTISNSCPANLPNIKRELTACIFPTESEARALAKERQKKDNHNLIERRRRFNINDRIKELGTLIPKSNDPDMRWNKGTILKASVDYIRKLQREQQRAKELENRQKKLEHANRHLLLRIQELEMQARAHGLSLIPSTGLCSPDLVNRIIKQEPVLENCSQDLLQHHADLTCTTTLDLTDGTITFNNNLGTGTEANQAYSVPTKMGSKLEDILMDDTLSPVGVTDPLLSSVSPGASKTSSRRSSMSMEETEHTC
# [7] = molecular target: T4, RNA-binding protein pos-1 (Caenorhabditis elegans, UniProt G5EF15); experiment: disruptors of C. elegans POS-1 RNA interaction – biochemical, fluorescence polarization, dose response (AID 1964);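 also: purified POS-1 fused to maltose binding protein made in E. coli; potency of compounds blocking POS-1 binding to fluorescent RNA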
# T4 sequence (G5EF15 whole entry): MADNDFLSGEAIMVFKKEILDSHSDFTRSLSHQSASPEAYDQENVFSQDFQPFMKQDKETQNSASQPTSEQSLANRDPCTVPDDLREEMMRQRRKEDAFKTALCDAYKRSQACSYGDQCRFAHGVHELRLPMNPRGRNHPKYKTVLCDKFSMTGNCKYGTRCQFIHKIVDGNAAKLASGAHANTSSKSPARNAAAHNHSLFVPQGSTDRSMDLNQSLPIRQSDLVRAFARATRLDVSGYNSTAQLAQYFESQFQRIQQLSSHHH
# [8] = molecular target: T5, Zinc finger protein mex-5 (Caenorhabditis elegans, UniProt Q9XUB2); experiment: potency of MEX-5 RNA-binding blockers – biochemical, C. elegans, fluorescence polarization, dose response (AID 1960)
# T5 sequence (Q9XUB2 whole entry): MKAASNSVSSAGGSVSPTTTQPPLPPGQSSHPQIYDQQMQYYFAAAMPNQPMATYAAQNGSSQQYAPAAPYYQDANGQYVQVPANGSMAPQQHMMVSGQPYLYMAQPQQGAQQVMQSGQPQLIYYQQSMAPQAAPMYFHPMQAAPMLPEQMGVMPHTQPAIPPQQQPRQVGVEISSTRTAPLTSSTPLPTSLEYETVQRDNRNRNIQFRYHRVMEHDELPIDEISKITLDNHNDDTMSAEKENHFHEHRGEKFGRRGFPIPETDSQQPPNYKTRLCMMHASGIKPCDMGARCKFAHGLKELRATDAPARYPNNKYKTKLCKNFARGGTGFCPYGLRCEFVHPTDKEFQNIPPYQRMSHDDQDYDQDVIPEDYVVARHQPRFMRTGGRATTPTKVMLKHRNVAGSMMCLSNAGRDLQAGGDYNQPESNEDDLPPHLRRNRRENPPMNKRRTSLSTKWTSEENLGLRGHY
# Nonstructural protein 1 = Nonstructural protein 1 (Influenza A virus, UniProt Q194T2); format: functional, Influenza A virus (A/California/07/2009(H1N1))
# Sequence of Nonstructural protein 1 (Q194T2 whole entry): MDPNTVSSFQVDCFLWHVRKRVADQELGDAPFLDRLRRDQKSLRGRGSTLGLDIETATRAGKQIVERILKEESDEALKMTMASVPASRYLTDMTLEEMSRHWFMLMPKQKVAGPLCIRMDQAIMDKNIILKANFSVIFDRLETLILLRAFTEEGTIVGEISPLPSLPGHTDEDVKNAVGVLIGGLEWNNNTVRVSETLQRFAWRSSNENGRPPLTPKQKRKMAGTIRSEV
# [9] = molecular target: T6, Apoptotic protease-activating factor 1 (Homo sapiens, UniProt O14727); format: functional
# T6 sequence (O14727 whole entry): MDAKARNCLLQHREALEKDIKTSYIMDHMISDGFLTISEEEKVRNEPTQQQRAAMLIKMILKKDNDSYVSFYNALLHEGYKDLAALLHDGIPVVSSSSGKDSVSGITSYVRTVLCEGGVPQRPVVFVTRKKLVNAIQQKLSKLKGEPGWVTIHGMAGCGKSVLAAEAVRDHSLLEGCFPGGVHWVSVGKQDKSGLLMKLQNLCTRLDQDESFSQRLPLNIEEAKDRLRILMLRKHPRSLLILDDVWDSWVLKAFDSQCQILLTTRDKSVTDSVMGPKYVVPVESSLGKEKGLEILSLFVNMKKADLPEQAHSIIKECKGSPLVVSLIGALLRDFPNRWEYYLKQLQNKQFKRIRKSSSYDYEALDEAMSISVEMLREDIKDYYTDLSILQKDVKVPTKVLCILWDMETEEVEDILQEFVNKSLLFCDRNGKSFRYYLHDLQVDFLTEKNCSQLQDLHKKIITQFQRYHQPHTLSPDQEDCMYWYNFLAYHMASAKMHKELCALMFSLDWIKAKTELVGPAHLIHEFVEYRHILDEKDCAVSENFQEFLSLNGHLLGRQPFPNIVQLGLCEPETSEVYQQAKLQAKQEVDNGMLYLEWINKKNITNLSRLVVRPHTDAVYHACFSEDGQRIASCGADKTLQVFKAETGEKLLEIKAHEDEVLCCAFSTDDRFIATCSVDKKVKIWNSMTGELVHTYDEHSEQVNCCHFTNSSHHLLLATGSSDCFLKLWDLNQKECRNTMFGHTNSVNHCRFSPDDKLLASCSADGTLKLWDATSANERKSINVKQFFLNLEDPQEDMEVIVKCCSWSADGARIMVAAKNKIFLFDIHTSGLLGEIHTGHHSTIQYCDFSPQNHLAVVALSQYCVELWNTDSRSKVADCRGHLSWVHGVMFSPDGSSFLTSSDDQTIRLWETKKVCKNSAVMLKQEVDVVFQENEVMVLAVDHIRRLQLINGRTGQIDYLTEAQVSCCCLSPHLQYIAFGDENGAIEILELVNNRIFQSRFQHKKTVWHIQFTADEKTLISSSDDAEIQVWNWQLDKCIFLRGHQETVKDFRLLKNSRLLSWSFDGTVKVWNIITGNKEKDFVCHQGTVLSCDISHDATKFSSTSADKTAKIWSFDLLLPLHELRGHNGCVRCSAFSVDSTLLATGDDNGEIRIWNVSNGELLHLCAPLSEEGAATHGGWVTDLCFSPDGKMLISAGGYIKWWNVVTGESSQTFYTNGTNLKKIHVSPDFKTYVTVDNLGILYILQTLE
# [10] = molecular target: T7, Polyadenylate-binding protein 1 (Homo sapiens, UniProt P11940); experiment: MLLE binding blockers, Cy5 peptide tracer – biochemical, fluorescence polarization, Cy5-PAM2 peptide, secondary, miRNA deadenylation inhibitor project, dose response (AID 602260); format: functional; details: read-out: IC50_Mean
# T7 sequence (P11940 whole entry, the tested form may be a part): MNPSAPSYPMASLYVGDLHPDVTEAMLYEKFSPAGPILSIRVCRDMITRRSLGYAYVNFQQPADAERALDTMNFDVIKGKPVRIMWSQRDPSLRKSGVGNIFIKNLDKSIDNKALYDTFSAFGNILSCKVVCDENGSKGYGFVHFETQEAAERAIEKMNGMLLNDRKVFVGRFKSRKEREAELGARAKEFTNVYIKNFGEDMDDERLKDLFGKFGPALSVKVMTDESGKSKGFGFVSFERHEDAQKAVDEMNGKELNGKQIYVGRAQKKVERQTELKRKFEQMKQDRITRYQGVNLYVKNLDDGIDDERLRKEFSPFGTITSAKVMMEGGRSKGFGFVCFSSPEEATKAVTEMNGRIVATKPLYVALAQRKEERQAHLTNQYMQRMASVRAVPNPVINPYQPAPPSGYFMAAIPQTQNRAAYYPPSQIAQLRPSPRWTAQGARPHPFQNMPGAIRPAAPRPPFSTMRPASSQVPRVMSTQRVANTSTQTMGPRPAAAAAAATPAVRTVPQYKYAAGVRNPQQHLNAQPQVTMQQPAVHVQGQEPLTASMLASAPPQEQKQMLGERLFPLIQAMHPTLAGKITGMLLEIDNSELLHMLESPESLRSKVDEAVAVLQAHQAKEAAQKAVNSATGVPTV
# [11] = molecular target: T7, Polyadenylate-binding protein 1; experiment: MLLE domain peptide-binding blockers, IC50 – biochemical, fluorescence polarization, FITC-PAM2 peptide, dose response (AID 602259); format: functional; details: read-out: IC50_Mean
# Caspase-6 = molecular target: T8, Caspase-6 (Homo sapiens, UniProt P55212); experiment: inhibition of CASP6 peptide cleavage – biochemical, VEID-R110 fluorescence, cherry-pick, dose response (AID 720632)
# T8 sequence (P55212 whole entry): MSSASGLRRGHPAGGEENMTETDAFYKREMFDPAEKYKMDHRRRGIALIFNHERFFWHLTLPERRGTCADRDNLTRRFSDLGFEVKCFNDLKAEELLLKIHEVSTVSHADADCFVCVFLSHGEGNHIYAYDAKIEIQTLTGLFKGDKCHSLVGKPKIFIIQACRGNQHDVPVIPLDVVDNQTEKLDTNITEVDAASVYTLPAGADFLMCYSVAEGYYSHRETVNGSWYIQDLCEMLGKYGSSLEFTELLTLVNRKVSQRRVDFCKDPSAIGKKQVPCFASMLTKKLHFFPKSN
# Caspase-9 = molecular target: T9, Caspase-9 (Homo sapiens, UniProt P55211); experiment: inhibitors of purified CASP9 protease – biochemical, fluorescence, plate reader, cherry-picked samples, selectivity assay for caspase-6 inhibitor project, dose response (AID 743293)
# T9 sequence (P55211 whole entry): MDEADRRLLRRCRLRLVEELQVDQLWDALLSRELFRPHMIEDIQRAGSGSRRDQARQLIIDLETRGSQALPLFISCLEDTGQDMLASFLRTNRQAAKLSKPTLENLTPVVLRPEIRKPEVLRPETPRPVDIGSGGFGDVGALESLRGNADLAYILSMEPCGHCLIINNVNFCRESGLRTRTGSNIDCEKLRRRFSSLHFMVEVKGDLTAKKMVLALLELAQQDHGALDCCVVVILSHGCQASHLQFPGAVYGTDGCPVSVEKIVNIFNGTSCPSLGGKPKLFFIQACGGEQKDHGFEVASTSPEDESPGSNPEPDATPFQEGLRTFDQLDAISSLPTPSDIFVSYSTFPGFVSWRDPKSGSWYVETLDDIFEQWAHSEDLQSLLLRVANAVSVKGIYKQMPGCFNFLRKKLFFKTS
# Caspase-8 = Caspase-8 (Homo sapiens, UniProt Q14790); experiment: inhibitors of purified CASP8 protease – biochemical, Z-IETD-R110 fluorescence, cherry-picked samples, selectivity assay for caspase-6 inhibitor project, dose response (AID 743294)
# Sequence of Caspase-8 (Q14790 217-374 limits assumed): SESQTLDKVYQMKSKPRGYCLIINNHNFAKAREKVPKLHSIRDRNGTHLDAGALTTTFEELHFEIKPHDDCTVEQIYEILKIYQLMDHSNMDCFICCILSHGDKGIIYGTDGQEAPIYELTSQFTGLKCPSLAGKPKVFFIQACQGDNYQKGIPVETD
# Sequence of Caspase-8 (Q14790 385-479 limits assumed): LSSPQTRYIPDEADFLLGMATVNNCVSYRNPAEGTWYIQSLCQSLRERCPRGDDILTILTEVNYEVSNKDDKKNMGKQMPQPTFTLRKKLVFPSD
compound,measurement,setting,value
CC1CCN(C(=O)CSc2ccc(-c3ccc(F)cc3)nn2)CC1,IC50,[1],> 109 µM (inactive)
same,IC50,[2],> 83.3 µM (inactive)
COC(=O)C(O)(c1ccc(N(C)C(=O)OC(C)C)cc1)C(F)(F)F (centres undefined),IC50,Estrogen receptor beta,> 50 µM (not active)
CCOC(=O)CSc1nnc2c(n1)C1(C)CCC2C1(C)C (centres undefined),EC50,[3],> 50 µM (active)
same,IC50,[1],> 109 µM (inactive)
same,IC50,[2],> 83.2 µM (inactive)
CCN(CC)CCOc1ccc(Cc2ccccc2)cc1,IC50,[4],> 33.3 µM (inactive)
same,AC50,Cytochrome P450 2D6,25.1 µM (inconclusive)
same,AC50,Cytochrome P450 1A2,12.6 µM (inconclusive)
Cc1nn(-c2ccccc2Cl)c(Cl)c1/C=N/Nc1cccc(C(=O)O)c1,IC50,[5],137 µM (active)
same,AC50,[6],5.5 µM (active)
COc1ccccc1N1C(=O)C(Cl)=C(Nc2ccccc2O)C1=O,EC50,[7],34.7 µM (active)
same,EC50,[8],8.19 µM (inconclusive)
same,IC50,[5],90.9 µM (active)
Cn1c(SCC(=O)N2CCCCC2)nnc1-c1ccc(S(=O)(=O)N2CCOCC2)cc1,IC50,[1],> 109 µM (inactive)
same,IC50,[2],> 83.3 µM (inactive)
Oc1cc(NCCc2cccnc2)cc2cccnc12,IC50,Nonstructural protein 1,6.64 µM (active)
same,IC50,[9],18.4 µM (active)
same,IC50,[10],> 66 µM (inactive)
same,IC50,[11],42.3 µM (inactive)
same,AC50,Caspase-6,2.89 µM (active)
same,AC50,Caspase-9,> 70 µM (inactive)
same,AC50,Caspase-8,30.1 µM (active)
CCC1=C(C)CN(C(=O)NCCc2ccc(S(=O)(=O)NC(=O)N[C@H]3CC[C@H](C)CC3)cc2)C1=O [GLIMEPIRIDE],IC50,[4],0.00406 µM (active)
